“And” between values parts separate entries of the source, which are not always exact repeats. Identical values can stand only once.
How the values were obtained:
[1] = tested on: human umbilical vein endothelial cells (HUVEC); assay: HUVEC+VEGF proliferation assay; assay type: cell-based; details: Homo sapiens, HUVEC, 72 h, VEGF 6 ng/mL, MTT
Procedure, shortened: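 HUVEC (passage 3-4), serum-starved 24 h in F12K + 1% FBS, were pre-treated with compound for 1 h (0.1% DMSO final). They were then stimulated with VEGF at 6 ng/mL final. Proliferation was measured after 72 h by MTT dye reduction (4 h), with absorbance read at 595 nm.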

PDGFRβ = target: T1, PDGFRβ (Homo sapiens, UniProt P09619); assay: PAE-PDGFRβ phosphorylation in PAE-PDGFRB cells assay; assay type: cell-based; details: PAE cells overexpressing human PDGFRβ, PDGF-BB stimulated; read-out: PAE PDGFR autophos IC50
T1 construct: expressed in transfected cells; host or cells: porcine aorta endothelial (PAE) cells
Procedure, shortened: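 PAE cells overexpressing human PDGFRβ, serum-starved 16 h (0.1% FBS), compound 1 h at 37° C (0.5% DMSO), then 1 μg/mL PDGF-BB with 2 mM Na3VO4 for 8 min. Receptor captured by anti-PDGFRβ, phosphotyrosine detected by HRP-PY20/TMB at 450 nm; IC50 by four-parameter fit.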

Mouse PK assay = assay type: in vivo, B6 female mice; details: po; for AUC / Cmax: female, B6, mouse, plasma, 50 mg/kg; for Cmax: p.o., read-out: Mouse Cmax, po ng-h/mL
Procedure, shortened: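 Plasma levels were measured by HPLC with UV detection after acetonitrile precipitation, using extracted standards, in blood taken up to 4 h (0.5, 1, 2, 4 h) post-dose. Dosing: 50 mg/kg orally or intraperitoneally to two groups of four female B6 mice, vehicle PEG 400:acidified H2O 30:70 suspension.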

T1 sequence (P09619 33-1106): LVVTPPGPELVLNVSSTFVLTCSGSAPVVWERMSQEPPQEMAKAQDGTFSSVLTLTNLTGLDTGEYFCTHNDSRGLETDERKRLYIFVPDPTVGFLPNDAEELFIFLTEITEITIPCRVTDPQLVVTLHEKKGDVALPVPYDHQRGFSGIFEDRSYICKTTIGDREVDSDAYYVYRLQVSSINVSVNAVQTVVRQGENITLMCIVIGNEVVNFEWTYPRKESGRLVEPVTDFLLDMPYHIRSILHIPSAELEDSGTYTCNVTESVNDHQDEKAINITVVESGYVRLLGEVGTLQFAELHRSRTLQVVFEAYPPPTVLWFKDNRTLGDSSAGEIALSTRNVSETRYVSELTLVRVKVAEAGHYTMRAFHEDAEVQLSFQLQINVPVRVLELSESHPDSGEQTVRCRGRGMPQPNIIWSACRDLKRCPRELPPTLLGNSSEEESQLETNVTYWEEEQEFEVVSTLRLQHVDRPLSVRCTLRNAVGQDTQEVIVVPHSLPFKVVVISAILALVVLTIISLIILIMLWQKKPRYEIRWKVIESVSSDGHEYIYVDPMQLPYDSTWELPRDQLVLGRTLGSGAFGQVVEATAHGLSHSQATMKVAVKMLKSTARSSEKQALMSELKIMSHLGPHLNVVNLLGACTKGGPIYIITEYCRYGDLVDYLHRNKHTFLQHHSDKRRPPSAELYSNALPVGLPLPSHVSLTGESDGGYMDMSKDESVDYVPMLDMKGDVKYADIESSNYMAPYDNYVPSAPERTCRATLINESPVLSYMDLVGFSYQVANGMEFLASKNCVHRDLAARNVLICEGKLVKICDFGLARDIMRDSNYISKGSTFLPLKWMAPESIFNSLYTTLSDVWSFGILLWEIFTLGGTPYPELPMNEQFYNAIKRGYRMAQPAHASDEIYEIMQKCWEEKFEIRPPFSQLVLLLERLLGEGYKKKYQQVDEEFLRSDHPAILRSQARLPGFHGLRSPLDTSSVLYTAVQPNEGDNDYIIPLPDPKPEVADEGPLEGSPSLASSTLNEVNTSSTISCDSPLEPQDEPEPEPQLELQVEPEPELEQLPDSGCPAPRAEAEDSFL

IC50 (PDGFRβ)	AUC (Mouse PK assay) [ng·h/mL]	Cmax (Mouse PK assay) [ng/mL]	Mouse Cmin, po (Mouse PK assay) [ng/mL]	Structure (SMILES)	IC50 [1] [nM]
10.5 nM	3620	2280	20	CNC(=O)n1c(C)cc2cc(Oc3ccnc4cc(C(=O)N5CC[C@H](OC)C5)sc34)ccc21 [Example 4g, 5-[2-(3S-Methoxy-pyrrolidine-1-carbonyl)-thieno[3,2-b]pyridin-7-yloxy]-2-methyl-indole-1-carboxylic acid methylamide]	0.139
19 nM	2600	657	161	CO[C@H]1CCN(C(=O)c2cc3nccc(Oc4ccc5c(c4)cc(C)n5C(=O)NC4CC4)c3s2)C1 [Example 4h, 5-[2-(3S-Methoxy-pyrrolidine-1-carbonyl)-thieno[3,2-b]pyridin-7-yloxy]-2-methyl-indole-1-carboxylic acid cyclopropylamide]	0.65
10 nM and 13 nM	5080	3430	32	CNC(=O)n1c(C)cc2cc(Oc3ccnc4cc(C(=O)N5CC[C@@H](OC)C5)sc34)ccc21 [Example 4j, 5-[2-(3R-Methoxy-pyrrolidine-1-carbonyl)-thieno[3,2-b]pyridin-7-yloxy]-2-methyl-indole-1-carboxylic acid methylamide]	0.088
15 nM	321000	11300	9020	C#CCNC(=O)n1c(C)cc2cc(Oc3ccnc4cc(C(=O)N5CC[C@@H](OC)C5)sc34)ccc21 [Example 4l, 5-[2-(3R-Methoxy-pyrrolidine-1-carbonyl)-thieno[3,2-b]pyridin-7-yloxy]-2-methyl-indole-1-carboxylic acid prop-2-ynylamide]	0.176
5.8 nM	1850	1110	45	CNC(=O)n1c(C)cc2cc(Oc3ccnc4cc(C(=O)N5CC[C@@H](O)C5)sc34)ccc21 [Example 4n, 5-[2-(3R-Hydroxy-pyrrolidine-1-carbonyl)-thieno[3,2-b]pyridin-7-yloxy]-2-methyl-indole-1-carboxylic acid methylamide]	0.042
9 nM	28500	5070	825	C#CCNC(=O)n1c(C)cc2cc(Oc3ccnc4cc(C(=O)N5CC[C@@H](O)C5)sc34)ccc21 [Example 4o, 5-[2-(3R-Hydroxy-pyrrolidine-1-carbonyl)-thieno[3,2-b]pyridin-7-yloxy]-2-methyl-indole-1-carboxylic acid prop-2-ynylamide]	0.071
4 nM	4630	2710	68	Cc1cc2cc(Oc3ccnc4cc(C(=O)N5CC[C@@H](O)C5)sc34)ccc2n1C(=O)NC1CC1 [Example 4p, 5-[2-(3R-Hydroxy-pyrrolidine-1-carbonyl)-thieno[3,2-b]pyridin-7-yloxy]-2-methyl-indole-1-carboxylic acid cyclopropylamide]	0.128
29 nM and 13 nM	31300	10400	1297	C#CCNC(=O)n1c(C)cc2cc(Oc3ccnc4cc(C(=O)N5CCC[C@@H]5CO)sc34)ccc21 [Example 8q, 5-[2-(2R-Hydroxymethyl-pyrrolidine-1-carbonyl)-thieno[3,2-b]pyridin-7-yloxy]-2-methyl-indole-1-carboxylic acid prop-2-ynylamide]	0.19
36 nM	9480	2320	461	CCCNC(=O)n1c(C)cc2cc(Oc3ccnc4cc(C(=O)N5CC[C@H](O)C5)sc34)ccc21 [Example 9i, 5-[2-(3S-Hydroxy-pyrrolidine-1-carbonyl)-thieno[3,2-b]pyridin-7-yloxy]-2-methyl-indole-1-carboxylic acid propylamide]	0.37
274 nM	1100	371	43	Cc1cc2cc(Oc3ccnc4cc(C(=O)N5CC[C@H](O)C5)sc34)ccc2n1C(=O)NCCO [Example 9k, 5-[2-(3S-Hydroxy-pyrrolidine-1-carbonyl)-thieno[3,2-b]pyridin-7-yloxy]-2-methyl-indole-1-carboxylic acid (2-hydroxy-ethyl)-amide]	0.49
216 nM	138	56	4	Cc1cc2cc(Oc3ccnc4cc(C(=O)N5CC[C@H](O)C5)sc34)ccc2n1C(=O)NCCCO [Example 9l, 5-[2-(3S-Hydroxy-pyrrolidine-1-carbonyl)-thieno[3,2-b]pyridin-7-yloxy]-2-methyl-indole-1-carboxylic acid (3-hydroxy-propyl)-amide]	0.27

Source: patent publication US6833456B2, “Indolyl-urea derivatives of thienopyridines useful as antiangiogenic agents, and methods for their use” (Agouron Pharmaceuticals, Inc., priority 2002, dated 2004)
